Experimental data published in patent US12378249B2, “Isoquinoline compounds and uses thereof” (Genentech, Inc., priority 2018, dated 2025).

Target: HPK1 (Homo sapiens (Human), UniProt Q92918, S171E/T165E)
Experiment: HPK1-FL HTRF Enzymatic Assay (HTRF)
Type: biochemical
Conditions: HPK full length T165E S171E 0.125 nM, ATP 1 mM, Biotin-SLP76 100 nM, read-out: HPK1 Ki (nM), H = HTRF
Procedure: Exemplary compounds of Formula (I) were tested to assess compound inhibition of HPK-1. The Ki for each exemplary compound was determined
Example B1: HPK1-FL HTRF Enzymatic Assay (“HTRF”)
HPK-FL enzyme phosphorylates Biotin-SLP-76 substrate in the presence of ATP at 1 mM and varying concentrations of test compound. Product is detected by FRET using Eu-anti-pSLP76 Ab and SA-XL665. Also see www.cisbio.com/HTRF for additional HTRF technology information.
• Echo555 compound dispenser • Agilent Bravo • Perkin Elmer Envision Final Assay Conditions:
Materials: • Assay plate: White ProxiPlate 384 F (PerkinElmer cat #6008289) • Kinase: HPK full length double mutant • Substrate: Biotin-SLP76 • ATP: 100 mM ATP • BSG: 2% BSG • DMSO: DMSO (Sigma cat #34869-100ML) • Reaction Buffer: H2O/50 mM HEPES, pH 7.5/10 mM MgCl2/2 mM TCEP/0.01% Brij-35/0.01% BSG • Detection mix:Eu-anti-pSLP76/SA-XL665 (Cisbio, #610SAXAC) Assay Procedure Ki determination:
To a 384 well Proxiplate with 80 nL compound or DMSO spotted on was added 4 μl/well kinase mix. The mixture was preincubated for 30 minutes and then 4 μl/well substrate mix was added. The solution was incubated for 60 min and then 4 μl/well detection mix was added. The solution was incubated for another 60 min. The plates were then loaded onto a Perkin Elmer Envision and the TR-FRET signal was measured at 615 and 665 nm. A ratio of […] was used to calculate the % activity at each concentration of compound.

Chain of HPK1 (Q92918 whole entry T165E/S171E): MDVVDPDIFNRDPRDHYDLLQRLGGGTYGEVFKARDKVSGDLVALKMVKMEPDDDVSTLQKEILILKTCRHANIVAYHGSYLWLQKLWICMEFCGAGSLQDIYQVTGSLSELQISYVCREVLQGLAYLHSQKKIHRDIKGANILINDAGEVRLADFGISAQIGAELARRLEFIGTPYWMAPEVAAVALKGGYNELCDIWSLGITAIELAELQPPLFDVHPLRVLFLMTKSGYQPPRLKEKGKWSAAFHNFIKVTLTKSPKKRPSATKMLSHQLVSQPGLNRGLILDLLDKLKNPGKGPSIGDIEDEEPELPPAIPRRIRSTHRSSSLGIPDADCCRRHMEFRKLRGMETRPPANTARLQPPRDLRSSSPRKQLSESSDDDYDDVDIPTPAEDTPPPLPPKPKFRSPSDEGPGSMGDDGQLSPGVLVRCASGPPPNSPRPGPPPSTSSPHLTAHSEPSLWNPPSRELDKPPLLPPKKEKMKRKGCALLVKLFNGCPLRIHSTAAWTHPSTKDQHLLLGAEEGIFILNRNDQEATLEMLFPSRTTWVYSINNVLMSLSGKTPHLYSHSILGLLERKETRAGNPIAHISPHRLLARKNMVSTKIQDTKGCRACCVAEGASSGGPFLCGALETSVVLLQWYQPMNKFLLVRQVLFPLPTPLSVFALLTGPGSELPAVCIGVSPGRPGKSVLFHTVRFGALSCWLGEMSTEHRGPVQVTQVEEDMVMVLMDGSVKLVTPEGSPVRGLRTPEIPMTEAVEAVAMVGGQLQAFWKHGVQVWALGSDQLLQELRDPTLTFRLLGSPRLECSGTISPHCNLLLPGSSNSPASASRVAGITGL

Row | Structure (SMILES) | Ki [nM]
1 | Cc1c(-c2cc3cc(Nc4ccn([C@@H](C)C#N)n4)ncc3cc2F)cnc2c1NCCO2 (single isomer, unassigned) [Compound 109b, 2-(3-((7-fluoro-6-(8-methyl-2,3-dihydro-1H-pyrido[2,3-b][1,4]oxazin-7-yl)isoquinolin-3-yl)amino)-1H-pyrazol-1-yl)propanenitrile] | 1.19
2 | Cc1c(-c2cc3cc(Nc4cc5n(n4)CC(=O)N(C(C)C)C[C@H]5O)ncc3cc2F)cnc2c1NCCO2 (single isomer, unassigned) [Compound 141a] | 0.033
3 | Cc1c(-c2cc3cc(Nc4cc5n(n4)CC(=O)N(C(C)C)CC5O)ncc3cc2F)cnc2c1NCCO2 (single isomer, unassigned) [Compound 141b] | 0.018
4 | Cc1c(-c2cc3cc(Nc4cc5n(n4)CC(=O)N([C@@H](C)C#N)CC5)ncc3cc2F)cnc2c1NCCO2 (single isomer, unassigned) [Compound 147a] | 0.014
5 | Cc1c(-c2cc3cc(Nc4cc5n(n4)CC(=O)N(C(C)C#N)CC5)ncc3cc2F)cnc2c1NCCO2 (single isomer, unassigned) [Compound 147b] | 0.013
6 | Cc1c(-c2cc3cc(Nc4cc5n(n4)CC(=O)N([C@@H](C)CO)CC5)ncc3cc2F)cnc2c1NCCO2 (single isomer, unassigned) [Compound 148a] | 0.013
7 | Cc1c(-c2cc3cc(Nc4cc5n(n4)CC(=O)N(C(C)CO)CC5)ncc3cc2F)cnc2c1NCCO2 (single isomer, unassigned) [Compound 148b] | 0.013
8 | Cc1c(N)cncc1-c1cc2cc(Nc3cc4n(n3)CC(=O)N([C@@H](C)CO)CC4)ncc2cc1F (single isomer, unassigned) [Compound 149a] | 0.043
9 | Cc1c(N)cncc1-c1cc2cc(Nc3cc4n(n3)CC(=O)N(C(C)CO)CC4)ncc2cc1F (single isomer, unassigned) [Compound 149b] | 0.019
10 | Cc1c(N)cncc1-c1cc2cc(Nc3cc4n(n3)CC(=O)N(C(C)C)C[C@H]4O)ncc2cc1F (single isomer, unassigned) [Compound 153a] | 0.064

More lines, now with the values ahead:

Row | Ki [nM] | Structure (SMILES)
11 | 0.075 | Cc1c(N)cncc1-c1cc2cc(Nc3cc4n(n3)CC(=O)N(C(C)C)CC4O)ncc2cc1F (single isomer, unassigned) [Compound 153b]
12 | 0.014 | Cc1c(N)cncc1-c1cc2cc(Nc3cc4n(n3)CC(=O)N([C@@H](C)C#N)CC4)ncc2cc1F (single isomer, unassigned) [Compound 154a]
13 | 0.032 | Cc1c(N)cncc1-c1cc2cc(Nc3cc4n(n3)CC(=O)N(C(C)C#N)CC4)ncc2cc1F (single isomer, unassigned) [Compound 154b]
14 | 0.128 | Cc1c(N)cncc1-c1cc2cc(Nc3cc4n(n3)CC(=O)N(C(C)(C)C)C[C@H]4F)ncc2cc1F (single isomer, unassigned) [Compound 167a]
15 | 0.013 | Cc1c(N)cncc1-c1cc2cc(Nc3cc4n(n3)CC(=O)N(C(C)(C)C)CC4F)ncc2cc1F (single isomer, unassigned) [Compound 167b]
16 | 0.05 | Cc1c(-c2cc3cc(Nc4cc5n(n4)CC(=O)N(C)CC5)ncc3cc2F)cnc2c1C(O)CCO2 (single isomer, unassigned) [Compound 180a, 2-((7-Fluoro-6-(4-hydroxy-5-methyl-3,4-dihydro-2H-pyrano[2,3-b]pyridine-6-yl)isoquinolin-3-yl)amino)-6-methyl-5,6-dihydro-4H-pyrazolo[1,5-d][1,4]diazepin-7(8H)-one]
17 | 4.82 | Cc1c(-c2cc3cc(Nc4cc5n(n4)CC(=O)N(C)CC5)ncc3cc2F)cnc2c1C(O)CCO2 (single isomer, unassigned) [Compound 180b, 2-((7-Fluoro-6-(4-hydroxy-5-methyl-3,4-dihydro-2H-pyrano[2,3-b]pyridine-6-yl)isoquinolin-3-yl)amino)-6-methyl-5,6-dihydro-4H-pyrazolo[1,5-d][1,4]diazepin-7(8H)-one]
18 | 0.169 | Cc1c(N)cncc1-c1cc2cc(Nc3cc4n(n3)CC(=O)N(C)C[C@@]4(C)O)ncc2cc1F (single isomer, unassigned) [Compound 185a]
